Measured values taken from patent publication US11713335B2, “Aminocoumarin compounds and methods of their use” (President and Fellows of Harvard College, priority 2018, dated 2023).
Values after ≈ are worked out from the molar mass of the structure shown. Where two headings read alike, the source gives them in different places.

Legend:
[1] = tested on: S. aureus RN4220; test: Minimal inhibitory concentration, S. aureus RN4220; assay type: cell-based; settings: 16 hour minimal inhibitory concentration at 37° C., read-out: MIC (μM) S. aureus RN4220
Procedure, shortened: (§1)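 Overnight cultures in LB (TSA for S. aureus) at 37 °C, diluted 1:100 twice, then exposed to twofold serial dilutions of compound from DMSO stock. Plates incubated unshaken 16 h at 37 °C and read at OD600. MIC (µM) is the lowest concentration inhibiting growth.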

[2] = tested on: A. baumannii 19606; test: Minimal inhibitory concentration, A. baumannii 19606; assay type: cell-based; settings: 16 hour minimal inhibitory concentration at 37° C., read-out: MIC (μM) A. baumannii 19606
Procedure, shortened: as §1

[3] = tested on: WT E. coli; test: Minimal inhibitory concentration in wild-type E. coli; assay type: cell-based, Escherichia coli; settings: wild-type E. coli, 37° C., 16 hours, read-out: MIC (μM) in WT E. coli
Procedure, shortened: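 Broth microdilution: saturated LB overnight culture diluted 1:100 twice, compound serially two-fold diluted across the plate from DMSO stock. Static incubation 16 hours at 37° C, OD600 read; MIC taken as lowest concentration inhibiting growth.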

[4] = tested on: E. coli MC4100; test: Minimal inhibitory concentration, E. coli MC4100; assay type: cell-based; settings: 16 hour minimal inhibitory concentration at 37° C., read-out: MIC (μM) E. coli MC4100 ara+
Procedure, shortened: as §1

[5] = tested on: S. aureus MW2; test: Minimal inhibitory concentration, S. aureus MW2; assay type: cell-based; settings: 16 hour minimal inhibitory concentration at 37° C., read-out: MIC (μM) S. aureus MW2 (MRSA)
Procedure, shortened: as §1

[6] = tested on: E. cloacae 13047; test: Minimal inhibitory concentration, E. cloacae 13047; assay type: cell-based; settings: 16 hour minimal inhibitory concentration at 37° C., read-out: MIC (μM) E. cloacae 13047
Procedure, shortened: as §1

[7] = tested on: E. coli 25922; test: Minimal inhibitory concentration, E. coli 25922; assay type: cell-based; settings: 16 hour minimal inhibitory concentration at 37° C., read-out: MIC (μM) E. coli 25922
Procedure, shortened: as §1

[8] = tested on: K. pneumoniae 700721; test: Minimal inhibitory concentration, K. pneumoniae 700721; assay type: cell-based; settings: 16 hour minimal inhibitory concentration at 37° C., read-out: MIC (μM) K. pneumoniae 700721
Procedure, shortened: as §1

[9] = Staphylococcus aureus, RN4220, 16 h
[10] = Acinetobacter baumannii, 19606, 16 h
[11] = Staphylococcus aureus, MRSA, 16 h

SMILES | MIC [1] [µM] | MIC [2] [µM] | MIC [3] [µM] | MIC [4] [µM] | MIC [5] [µM] | MIC [6] [µM] | MIC [7] [µM] | MIC [8] [µM] | MIC [1, 9] [µM] | MIC [2, 10] [µM] | MIC ([3]; Escherichia coli) [µM] | MIC ([4]; Escherichia coli, MC4100, 16 h) [µM] | MIC [5, 11] [µM] | MIC ([6]; Enterobacter cloacae, 13047) [µM] | MIC ([7]; Escherichia coli, 25922, 16 h) [µM] | MIC ([8]; Klebsiella pneumoniae, 700721) [µM]
CO[C@@H]1[C@@H](OC(N)=O)[C@@H](O)[C@H](Oc2ccc3c(O)c(NC(=O)Cc4ccccc4)c(=O)oc3c2C)OC1(C)C [Compound 42] | >100 | >50 | >300 | >200 | >100 | >100 | >200 | >100 | – | – | – | – | – | – | – | –
CO[C@@H]1[C@@H](OC(N)=O)[C@@H](O)[C@H](Oc2ccc3c(O)c(NC(=O)CCc4ccccc4)c(=O)oc3c2C)OC1(C)C [Compound 43] | – | – | – | – | – | – | – | – | > 100 | > 50 | > 300 | > 200 | > 100 | > 100 | > 200 | > 100
CO[C@@H]1[C@@H](OC(N)=O)[C@@H](O)[C@H](Oc2ccc3c(O)c(NC(=O)c4ccc(Oc5ccccc5)cc4)c(=O)oc3c2C)OC1(C)C [Compound 44] | 45 (≈ 27.9 µg/mL) | >50 | >300 | >200 | 40 (≈ 24.8 µg/mL) | >100 | >200 | >100 | – | – | – | – | – | – | – | –
COc1cccc(-c2cccc(C(=O)Nc3c(O)c4ccc(O[C@@H]5OC(C)(C)[C@H](OC)[C@@H](OC(N)=O)[C@H]5O)c(C)c4oc3=O)c2)c1 [Compound 45] | 5 (≈ 3.17 µg/mL) | >50 | – | 89 (≈ 56.5 µg/mL) | 3 (≈ 1.9 µg/mL) | – | 79 (≈ 50.1 µg/mL) | – | – | – | 89 (≈ 56.5 µg/mL) | – | – | > 100 | – | > 100
COc1ccc(-c2cccc(C(=O)Nc3c(O)c4ccc(O[C@@H]5OC(C)(C)[C@H](OC)[C@@H](OC(N)=O)[C@H]5O)c(C)c4oc3=O)c2)cc1 [Compound 46] | – | – | – | – | – | – | – | – | 5 (≈ 3.17 µg/mL) | > 50 | > 300 | > 200 | 3 (≈ 1.9 µg/mL) | > 100 | > 200 | > 100
CO[C@@H]1[C@@H](OC(N)=O)[C@@H](O)[C@H](Oc2ccc3c(O)c(NC(=O)c4cccc(-c5ccccc5C)c4)c(=O)oc3c2C)OC1(C)C [Compound 47] | – | – | – | – | – | – | – | – | 20 (≈ 12.4 µg/mL) | > 50 | 26 (≈ 16.1 µg/mL) | 26 (≈ 16.1 µg/mL) | 10 (≈ 6.19 µg/mL) | > 100 | 40 (≈ 24.7 µg/mL) | > 100
CO[C@@H]1[C@@H](OC(N)=O)[C@@H](O)[C@H](Oc2ccc3c(O)c(NC(=O)c4cccc(-c5ccc(C(C)C)cc5)c4)c(=O)oc3c2C)OC1(C)C [Compound 48] | – | – | – | – | – | – | – | – | 0.77 (≈ 0.498 µg/mL) | 19 (≈ 12.3 µg/mL) | 89 (≈ 57.6 µg/mL) | 89 (≈ 57.6 µg/mL) | 0.48 (≈ 0.31 µg/mL) | > 100 | 77 (≈ 49.8 µg/mL) | 77 (≈ 49.8 µg/mL)
CO[C@@H]1[C@@H](OC(N)=O)[C@@H](O)[C@H](Oc2ccc3c(O)c(NC(=O)c4cccc(-c5ccccc5C(C)C)c4)c(=O)oc3c2C)OC1(C)C [Compound 49] | 10 (≈ 6.47 µg/mL) | >50 | >300 | >200 | 5 (≈ 3.23 µg/mL) | >100 | >200 | >100 | – | – | – | – | – | – | – | –
COc1ccccc1-c1cccc(C(=O)Nc2c(O)c3ccc(O[C@@H]4OC(C)(C)[C@H](OC)[C@@H](OC(N)=O)[C@H]4O)c(C)c3oc2=O)c1 [Compound 50] | 19 (≈ 12.1 µg/mL) | >50 | 40 (≈ 25.4 µg/mL) | 40 (≈ 25.4 µg/mL) | 10 (≈ 6.35 µg/mL) | >100 | 39 (≈ 24.8 µg/mL) | >100 | – | – | – | – | – | – | – | –
CO[C@@H]1[C@@H](OC(N)=O)[C@@H](O)[C@H](Oc2ccc3c(O)c(NC(=O)c4cccc(-c5cccc(C)c5)c4)c(=O)oc3c2C)OC1(C)C [Compound 51] | – | – | – | – | – | – | – | – | 1.62 (≈ 1 µg/mL) | 40 (≈ 24.7 µg/mL) | 26 (≈ 16.1 µg/mL) | 26 (≈ 16.1 µg/mL) | 1 (≈ 0.619 µg/mL) | > 100 | 81 (≈ 50.1 µg/mL) | > 100
CO[C@@H]1[C@@H](OC(N)=O)[C@@H](O)[C@H](Oc2ccc3c(O)c(NC(=O)c4cccc(N5CCN(C)CC5)c4)c(=O)oc3c2C)OC1(C)C [Compound 52] | – | – | – | – | – | – | – | – | > 100 | > 50 | > 300 | > 200 | > 100 | > 100 | 160 (≈ 100 µg/mL) | > 100
CO[C@@H]1[C@@H](OC(N)=O)[C@@H](O)[C@H](Oc2ccc3c(O)c(NC(=O)c4cccc(C5CCC5)c4)c(=O)oc3c2C)OC1(C)C [Compound 53] | 11 (≈ 6.41 µg/mL) | >50 | >300 | >200 | 11 (≈ 6.41 µg/mL) | >100 | >200 | >100 | – | – | – | – | – | – | – | –
CCc1ccc(-c2cccc(C(=O)Nc3c(O)c4ccc(O[C@@H]5OC(C)(C)[C@H](OC)[C@@H](OC(N)=O)[C@H]5O)c(C)c4oc3=O)c2)cc1 [Compound 54] | 0.99 (≈ 0.626 µg/mL) | 20 (≈ 12.7 µg/mL) | 40 (≈ 25.3 µg/mL) | 40 (≈ 25.3 µg/mL) | 0.99 (≈ 0.626 µg/mL) | >100 | 79 (≈ 50 µg/mL) | 79 (≈ 50 µg/mL) | – | – | – | – | – | – | – | –
CO[C@@H]1[C@@H](OC(N)=O)[C@@H](O)[C@H](Oc2ccc3c(O)c(NC(=O)c4cccc(-c5ccc(C(F)(F)F)cc5)c4)c(=O)oc3c2C)OC1(C)C [Compound 55] | 1.49 (≈ 1 µg/mL) | 37 (≈ 24.9 µg/mL) | >300 | >200 | 0.93 (≈ 0.626 µg/mL) | >100 | >200 | >100 | – | – | – | – | – | – | – | –
CO[C@@H]1[C@@H](OC(N)=O)[C@@H](O)[C@H](Oc2ccc3c(O)c(NC(=O)c4cccc(-c5cccc(C(F)(F)F)c5)c4)c(=O)oc3c2C)OC1(C)C [Compound 56] | 0.74 (≈ 0.498 µg/mL) | 37 (≈ 24.9 µg/mL) | >300 | >200 | 0.46 (≈ 0.309 µg/mL) | >100 | >200 | >100 | – | – | – | – | – | – | – | –
CO[C@@H]1[C@@H](OC(N)=O)[C@@H](O)[C@H](Oc2ccc3c(O)c(NC(=O)c4cccc(-c5ccc(OC(F)(F)F)cc5)c4)c(=O)oc3c2C)OC1(C)C [Compound 57] | 1.45 (≈ 0.998 µg/mL) | 18 (≈ 12.4 µg/mL) | >300 | >200 | 0.91 (≈ 0.627 µg/mL) | >100 | >200 | >100 | – | – | – | – | – | – | – | –
